Results as given in PMC5829251, “NAD^+ analog reveals PARP-1 substrate-blocking mechanism and allosteric communication from catalytic center to DNA-binding domains” (Nature Communications, 2018).
Entries after “also recorded” stand apart in the source; their conditions may differ.

Tests used:
PARP-1 CAT ΔHD = biological target: T1, PARP-1 CAT ΔHD (Homo sapiens, UniProt P09874); assay: DSF, PARP-1 CAT ΔHD; assay type: binding; details: for TM: CAT ΔHD 5 μM, in °C (unit assumed)
T1 construct: a pET28 construct coding for PARP-1 residues 661-1011; made in house; host or cells: E. coli
Method: DSF experiments were performed as described, [13] using 5 µM protein, 2.5 µM DNA when indicated and various concentrations of compound (BAD, carba-NAD^+, benzamide, and ADP-ribose) as indicated in Fig. 1 and Fig. 3. Experiments were performed on a Roche LightCycler 480 RT-PCR. Reactions including DNA were performed with a 26- or 28-base pair (bp) unphosphorylated oligonucleotide for PARP-1, a 28-bp 5´-phosphorylated (5´P) oligonucleotide for PARP-2, and a 47-bp oligonucleotide including a central 5´P nick for PARP-3^13 in the following buffer: 25 mM Hepes pH 8.0, 150 mM NaCl, 1 mM EDTA, and 0.1 mM TCEP. Reactions with PARP-3 were conducted at lower ionic strength to allow binding to DNA as described (25 mM Hepes pH 8.0, 50 mM NaCl, 1 mM EDTA and 0.1 mM TCEP)[13]. ΔTM values were calculated by subtracting the TM determined for the protein in the absence of compound from the TM determined in the presence of compound. Experiments were performed in triplicate and a Boltzmann sigmoid was fit to the data to determine the TM values (KaleidaGraph).

PARP-1 CAT WT = biological target: T2, PARP-1 CAT WT (Homo sapiens, UniProt P09874); assay: Isothermal titration calorimetry (ITC), PARP-1 CAT WT; assay type: binding
T2 construct: The PARP-1 CAT WT (residues 661–1014) was cloned in pET28 vector; made in house; host or cells: E. coli
Method: ITC experiments were performed using a MicroCal iTC200 calorimeter (GE Healthcare). BAD or benzamide at 525 μM was titrated into PARP-1 protein (50 μM for CAT WT and CAT ΔHD, 40 μM for full-length PARP-1 WT and mutants) or PARP-1 protein with DNA (20–40 μM) at 25°C. Prior to the experiment, proteins and DNA were dialyzed in 25 mM Hepes pH 8.0, 150 mM NaCl, 1 mM EDTA, and 0.1 mM TCEP. BAD and benzamide were diluted in the dialysis buffer. PARP-1/DNA complexes were assembled and incubated at RT for 30 min prior to performing the experiment. Experiments were typically designed as follows: a first injection of 0.2 μL was followed by 16 injections of 2.5 μL with a spacing of 100 s between injections. Excess heat upon each injection was integrated using an automatically adjusted base line and derived values corrected by heat of dilution. Data analysis and curve fitting were conducted using Origin 7 software. The ITC experiment for each sample was performed either two (PARP-1 WT with benzamide, PARP-1 E763/D766/D770A with benzamide, PARP-1 D766/D770A with BAD) or three times (the remaining eight samples). Table 2 lists the average KD value and stoichiometry (n) for the replicates, and the reported errors are the calculated standard deviations (representing the range of values for experiments repeated two times). We anticipate that the sub-stoichiometric n values for CAT constructs results from either the active fraction being < 100%, or the protein concentration determination being not entirely accurate. The analysis of full-length PARP-1 yielded n values around the expected value of 1.

[1] = Figure 1e, compound 25 µM, TM without compound 41.26
[2] = Figure 1e, compound 150 µM, TM without compound 41.26
[3] = Figure 1e, compound 750 µM, TM without compound 41.26
[4] = Figure 1e, compound 1500 µM, TM without compound 41.26
[5] = CAT WT 50 μM, compound 525 μM titrated, 25°C

T2 sequence (P09874 661-1014): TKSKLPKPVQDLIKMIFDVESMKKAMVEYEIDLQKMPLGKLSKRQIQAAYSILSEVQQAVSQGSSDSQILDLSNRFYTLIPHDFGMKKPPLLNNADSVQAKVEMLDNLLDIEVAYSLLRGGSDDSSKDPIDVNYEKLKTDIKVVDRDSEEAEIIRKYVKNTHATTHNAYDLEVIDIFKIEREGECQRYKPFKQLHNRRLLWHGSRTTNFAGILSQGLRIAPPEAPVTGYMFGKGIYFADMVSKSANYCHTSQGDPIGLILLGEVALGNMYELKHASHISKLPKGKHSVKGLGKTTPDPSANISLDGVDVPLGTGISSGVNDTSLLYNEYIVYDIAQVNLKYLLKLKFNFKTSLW
T1 sequence (P09874 with tags, fused parts or gaps): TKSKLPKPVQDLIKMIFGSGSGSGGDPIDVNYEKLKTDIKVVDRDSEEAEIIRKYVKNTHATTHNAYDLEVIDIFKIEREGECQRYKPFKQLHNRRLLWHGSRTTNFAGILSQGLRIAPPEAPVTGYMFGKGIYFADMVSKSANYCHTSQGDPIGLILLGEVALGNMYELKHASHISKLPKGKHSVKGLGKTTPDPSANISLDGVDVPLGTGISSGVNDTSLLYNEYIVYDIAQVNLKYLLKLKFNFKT

## NC(=O)c1cccc(C2OC(COP(=O)(O)OP(=O)(O)OCC3OC(n4cnc5c(N)ncnc54)C(O)C3O)C(O)C2O)c1 (stereo not shown) [BAD, benzamide adenine dinucleotide]
PARP-1 CAT ΔHD; [1]
  TM: 45.52
PARP-1 CAT ΔHD; [2]
  TM: 48.60
PARP-1 CAT ΔHD; [3]
  TM: 49.27
PARP-1 CAT ΔHD; [4]
  TM: 51.95
PARP-1 CAT ΔHD; Figure 1d, compound 50 µM, TM without compound 41.76
  TM: 47.02
PARP-1 CAT ΔHD; Figure 1d, compound 250 µM, TM without compound 41.76
  TM: 49.58
PARP-1 CAT ΔHD; Figure 1d, compound 1250 µM, TM without compound 41.76
  TM: 51.91
PARP-1 CAT ΔHD; at the highest concentration, 5 μM protein
  TM increase (ΔTM) of CAT ΔHD: 10 °C
PARP-1 CAT WT; [5]
  KD: no measureable heat exchange; also recorded: No binding

## NC(=O)c1ccccc1 [benzamide]
PARP-1 CAT ΔHD; 5 μM protein, various amounts of compound
  change of TM of CAT ΔHD (evidence of binding): increased the TM
PARP-1 CAT ΔHD; [1]
  TM: 43.73
PARP-1 CAT ΔHD; [2]
  TM: 46.20
PARP-1 CAT ΔHD; [3]
  TM: 46.99
PARP-1 CAT ΔHD; [4]
  TM: 49.98
PARP-1 CAT WT; CAT WT
  n (stoichiometry): 0.49 + /− 0.02
PARP-1 CAT WT; [5]
  Kd: 3.79 µM
